What was measured:
CB1 receptor = molecular target: T1, CB1 receptor (Rattus norvegicus, UniProt P20272); experiment: Radioligand binding assay, rat cerebellum membranes
T1 construct: the cerebellum was dissected away from the rest of the brain, weighed and homogenised; from tissue; host or cells: Sprague Dawley rat cerebellum membranes
Procedure: (§1) The affinity of compounds at cannabinoid receptors is routinely assessed using ligand binding assays known to those skilled in the art. Radioligand binding assays were conducted using rat cerebellum or rat spleen. The cerebellum of the rat is known to express predominantly, if not exclusively, the CB1 receptor subtype (20,21). Thus, binding constants obtained from these studies are characterised by a single affinity value, as only one receptor type is labelled. […] In contrast, biphasic binding curves in the spleen characterised by two affinity constants represent the profile of compounds showing selectivity for one receptor subtype over another. In order to determine the order of selectivity, the high and low affinity values obtained for these compounds in the spleen binding assays were compared to the single affinity estimates obtained for the cerebellum (CB1) assays.
Sprague Dawley rats of either sex (200-300 g) were killed by gassing with 80% CO2 in O2 and decapitation, and the entire brain excised rapidly and placed in ice-cold Tris-HCl buffer (Tris 50 mM, MgCl2 3 mM, EGTA 0.2 mM, pH to 7.4 with HCl). On ice, the cerebellum was dissected away from the rest of the brain, weighed and homogenised (PT-DA 1205/2EC Polytron Aggregate; Kinematica, Luzernerstrasse Switzland) in 10 volumes of ice-cold Tris-HCl buffer. The homogenate was then made up to 20 volumes and centrifuged (Model J2-M1, Beckman, Fullerton, Calif., U.S.A.) at […] for 15 min at 4° C.). Subsequently, the supernatant was discarded, the pellet resuspended in 20 volumes of buffer and centrifuged as before. The resulting pellet was then resuspended in 20 volumes of buffer and assayed for protein content using the method of Bradford (Bradford, 1976) in a Novaspec II spectrophotometer (Pharmacia Biotech; with bovine serum albumin (BSA; Hömosafe BSA, c/o ‘ScimaR’ Templestowe, Australia) as the standard. The homogenate was then recentrifuged and the final pellet resuspended in Tris-HCl buffer at a protein concentration of 5 mg/ml and stored in 500 μl aliquots at −80° C. until used in the binding assay.
(§2) Ligand binding assays were performed in polypropylene tubes in a total volume of 1 ml containing Tris-HCl buffer, a final concentration of 1 mg/ml BSA, and varying concentrations of drugs. Tubes contained 30 μg of membrane protein and incubation was started by the addition of 100 μl of either 0.5 nM [^3H]SR141716A or 0.2 nM [^3H]WIN 55,212-2. Experiments were carried out in triplicate at 30° C. for 90 min with non-specific binding being defined as radioligand binding in the presence of 1 μM unlabelled WIN 55,212-2. Incubations were terminated by rapid filtration with a M-24 Cell Harvester (Brandel; Gaithersburg, Md., U.S.A.) using ice-cold Tris-HCl buffer containing 0.5 mg/ml BSA. Filters (Wattman GF/B) were soaked for 2 h prior to filtering in a solution of Tris-HCl buffer containing 3 mg/ml BSA and 0.5% w/w polyethyleneimine (PEI). Filters were left to dry thoroughly before placement into scintillation vials with 5 ml of scintillation cocktail (Ultima Gold LSC-cocktail; Packard Bioscience, Meriden, Conn., U.S.A.) being added. Vials were left to stand overnight before the radioactivity was determined using a Model 1409 DSA Liquid Scintillation counter (EG&E Wallac, Gaithersburg, Md., U.S.A.).
(§3) The resulting radioligand binding curves were analyzed by nonlinear regression using the program PRISM 3.0 (GraphPad Software, San Diego, Calif.) in order to derive ligand affinity estimates for the cannabinoid receptor(s).

Sprague-Dawley rats = experiment: Neuropathic pain testing: L5/L6 spinal nerve ligation, tactile allodynia with von Frey hairs; format: in vivo; settings: intraperitoneal injection, propylene glycol vehicle, rat
Description: Production of a unilateral hind limb neuropathy in male Sprague-Dawley rats was achieved using the technique of L5 and L6 spinal nerve ligation, according to the method of Kim and Chung (1992). Animals were given one week to recover from surgery prior to testing for the development of […] pain.
The testing procedure involved the determination of tactile allodynia using von Frey hairs, which were applied sequentially to the plantar surface of the rat paw starting with 2 g of force and proceeding upwards to a maximum of 15.1 g of force or downwards to a minimum of 0.4 g force. The 15.1 g force was used to define the maximum possible effect (MPE) for this test of neuropathic pain. Once paw withdrawal occurred, the 50% withdrawal threshold was determined using the “up-down” method as published by Dixon (1980). Both hind paws were tested. Response to therapy as measured by tactile allodynia threshold was calculated using the percentage maximum possible effect (% MPE) according to the following equation: % MPE=100×([Measured value]−[Pre-treatment value])/([MPE]−[Pre-treatment value]).
Drugs were dissolved in a propylene glycol vehicle and administered via intraperitoneal injection.

CB2 receptor = molecular target: T2, CB2 receptor (Rattus norvegicus, UniProt Q9QZN9); experiment: Radioligand binding assay, rat spleen membranes
T2 sequence (Q9QZN9 1-343 limits assumed): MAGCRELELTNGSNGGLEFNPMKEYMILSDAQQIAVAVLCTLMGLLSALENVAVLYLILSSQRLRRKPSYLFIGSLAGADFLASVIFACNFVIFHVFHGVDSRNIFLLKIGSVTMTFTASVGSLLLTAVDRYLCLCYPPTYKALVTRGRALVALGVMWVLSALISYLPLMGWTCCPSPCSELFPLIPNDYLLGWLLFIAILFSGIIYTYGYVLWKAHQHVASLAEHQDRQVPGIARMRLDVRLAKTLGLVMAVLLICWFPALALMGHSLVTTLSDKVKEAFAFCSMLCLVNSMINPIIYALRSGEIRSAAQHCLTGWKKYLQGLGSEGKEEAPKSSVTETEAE
Procedure: as §1
Sprague Dawley rats (200-300 g) were killed by gassing with 80% CO2 in O2 and decapitation and the spleen excised rapidly and placed in ice-cold Tris-HCl buffer (Tris 50 mM, MgCl2 3 mM, EGTA 0.2 mM, pH 7.4). The spleen was weighed and diced using a scalpel before homogenisation in 10 volumes of Tris-HCl buffer. The homogenate was then made up to 20 volumes and centrifuged (12,600 g, 5 min, 4° C.), the supernatant was retained and centrifuged (23,800 g, 20 min, 4° C.). The pellet was resuspended in 10 volumes of buffer and assayed for protein content using the method of Bradford (Bradford, 1976) with BSA as the standard. The homogenate was then recentrifuged and the final pellet resuspended in Tris-HCl buffer at a protein concentration of 5 mg/ml and stored in 500 μl aliquots at −80° C. until used for the binding assay.
as §2, §3

T1 sequence (P20272 whole entry): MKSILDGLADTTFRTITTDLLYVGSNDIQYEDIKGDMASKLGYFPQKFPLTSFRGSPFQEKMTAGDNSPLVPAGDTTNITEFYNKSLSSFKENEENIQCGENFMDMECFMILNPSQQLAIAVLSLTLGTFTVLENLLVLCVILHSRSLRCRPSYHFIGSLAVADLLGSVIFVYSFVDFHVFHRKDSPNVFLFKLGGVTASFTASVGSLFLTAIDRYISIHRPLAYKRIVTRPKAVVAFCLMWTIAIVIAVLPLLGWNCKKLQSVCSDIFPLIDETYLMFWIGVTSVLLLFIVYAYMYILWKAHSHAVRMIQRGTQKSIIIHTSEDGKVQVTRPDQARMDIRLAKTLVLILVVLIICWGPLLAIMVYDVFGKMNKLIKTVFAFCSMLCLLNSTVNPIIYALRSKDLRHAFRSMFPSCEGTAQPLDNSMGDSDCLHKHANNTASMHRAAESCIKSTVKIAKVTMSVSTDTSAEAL

Compound: c1ccc(Cc2noc(-c3cn(CCN4CCCC4)c4ccccc34)n2)cc1 [Compound 1, 3-(3-Benzyl-[1,2,4]-oxadiazol-5-yl)-1-[2-(pyrrolidin-1-yl)ethyl]-1H-indole]
- IC50 (CB1 receptor): 50 nM
- antinociceptive effect in model of neuropathic pain (Sprague-Dawley rats): significant antinociceptive effect
- IC50 (CB2 receptor): 1600 nM
